Values of other authors, collected in patent US12329849B2, “Method for dyeing keratinous material, comprising the use of an organosilicon compound, a dyeing compound, a sealing reagent, and a polymer-containing post-treatment agent” (Henkel AG & Co. KGaA, priority 2021, dated 2025).

solubility in water (25° C.)	SMILES	further results
–	CCN(Cc1cccc(S(=O)(=O)[O-])c1)c1ccc(C(=C2C=CC(=[N+](CC)Cc3cccc(S(=O)(=O)[O-])c3)C=C2)c2ccccc2S(=O)(=O)[O-])cc1.[Na+].[Na+] [Acid Blue 9]	water solubility (25° C.): more than 20 wt %
more than 7 g/l	O=S(=O)([O-])c1ccc(N=Nc2c(O)ccc3ccccc23)cc1.[Na+] [Acid Orange 7, sodium salt of 4-[(2-hydroxy-1-naphthyl)azo]benzenesulfonate]	–
2500 µg/mL	Nc1cc(S(=O)(=O)[O-])cc2cc(S(=O)(=O)[O-])c(N=Nc3ccccc3)c(O)c12.[Na+].[Na+] [Acid Red 33, disodium salt of 5-amino-4-hydroxy-3-(phenylazo)-naphthalene-2,7-disulfonate]	–
–	O=C([O-])C1=NN(c2ccc(S(=O)(=O)[O-])cc2)C(=O)C1N=Nc1ccc(S(=O)(=O)[O-])cc1.[Na+].[Na+].[Na+] (centres unmarked) [Acid Yellow 23, trisodium salt of 4,5-dihydro-5-oxo-1-(4-sulfophenyl)-4-((4-sulfophenyl)azo)-1H-pyrazole-3-carboxylic acid]	solubility in water (in words) (at 25° C.): readily soluble

SMILES	solubility in water (25° C.)	further results
O=C([O-])c1c(Cl)c(Cl)c(Cl)c(Cl)c1-c1c2c(Br)cc(=O)c(Br)c-2oc2c(Br)c(O)cc(Br)c12.O=C([O-])c1c(Cl)c(Cl)c(Cl)c(Cl)c1-c1c2c(Br)cc(=O)c(Br)c-2oc2c(Br)c(O)cc(Br)c12.[Na+].[Na+] [Acid Red 92, disodium salt of 3,4,5,6-tetrachloro-2-(1,4,5,8-tetrabromo-6-hydroxy-3-oxoxanthen-9-yl)benzoic acid]	greater than 10 g/l	–
